Reference: ChEMBL document CHEMBL1201862, “PubChem BioAssay data set” (2004)
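How tested: cells in 96-well plates exposed to compound for 48 hours at five concentrations. GI50 marks 50% less growth.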 Activity calls are given as the source filed them. No stated cut-off is given here; in the data, active = GI50 up to about 1.1 µM and inactive = higher.

What was measured:
Test in all cases: NCI anticancer screen, dose series, 48 h
[1] = test system: 786-0
[2] = test system: ACHN
[3] = test system: COLO 205
[4] = test system: DU-145
[5] = test system: HCT-116
[6] = test system: HOP-62
[7] = test system: IGROV-1
[8] = test system: KM12
[9] = test system: MCF7
[10] = test system: MDA-MB-435
[11] = test system: Malme-3M
[12] = test system: NCI-H460
[13] = test system: NCI-H522
[14] = test system: OVCAR-5
[15] = test system: RPMI-8226
[16] = test system: SK-MEL-2
[17] = test system: SNB-19
[18] = test system: SW-620
[19] = test system: UACC-257
[20] = test system: UO-31

Compound	GI50 [1]	GI50 [2]	GI50 [3]	GI50 [4]	GI50 [5]	GI50 [6]	GI50 [7]	GI50 [8]	GI50 [9]	GI50 [10]	GI50 [11]	GI50 [12]	GI50 [13]	GI50 [14]	GI50 [15]	GI50 [16]	GI50 [17]	GI50 [18]	GI50 [19]	GI50 [20]
CC1=CCCC2C1(C)CCC(C)C2(C)Cc1cc(O)ccc1O (stereo not given)	7.24 µM (inactive)	11.9 µM (inactive)	14.8 µM (inactive)	15 µM (inactive)	4 µM (inactive)	13.5 µM (inactive)	5.94 µM (inactive)	5.94 µM (inactive)	5.62 µM (inactive)	7.24 µM (inactive)	17.7 µM (inactive)	5.69 µM (inactive)	3.18 µM (inactive)	21 µM (inactive)	2.86 µM (inactive)	9.06 µM (inactive)	5.68 µM (inactive)	6.12 µM (inactive)	13.2 µM (inactive)	4.84 µM (inactive)
COc1ccccc1N1CCN(CCCCNC(=O)c2ccc([N+](=O)[O-])o2)CC1	6.82 µM (inactive)	11.7 µM (inactive)	2.38 µM (inactive)	4.76 µM (inactive)	10.3 µM (inactive)	5.18 µM (inactive)	13.7 µM (inactive)	5.53 µM (inactive)	4.75 µM (inactive)	3.36 µM (inactive)	2.81 µM (inactive)	3.43 µM (inactive)	2.69 µM (inactive)	15.1 µM (inactive)	19.1 µM (inactive)	4.97 µM (inactive)	11.8 µM (inactive)	8.22 µM (inactive)	4.1 µM (inactive)	10.4 µM (inactive)
CC(=O)Nc1ccc(S(=O)(=O)[N-]C2C(=O)c3ccccc3C(=O)C2[n+]2ccccc2)cc1 (stereo not given)	> 100 µM (inactive)	15.8 µM (inactive)	> 100 µM (inactive)	> 100 µM (inactive)	> 100 µM (inactive)	17.9 µM (inactive)	15 µM (inactive)	14.6 µM (inactive)	16.8 µM (inactive)	4.09 µM (inactive)	12.4 µM (inactive)	29.3 µM (inactive)	19.2 µM (inactive)	17.7 µM (inactive)	17.5 µM (inactive)	12.5 µM (inactive)	14.3 µM (inactive)	17.1 µM (inactive)	16.1 µM (inactive)	9.06 µM (inactive)
CCOC(=O)c1cc2nc3ccccc3c(=O)n2c2ccccc12	> 10 µM (inactive)	> 10 µM (inactive)	> 10 µM (inactive)	> 10 µM (inactive)	> 10 µM (inactive)	> 10 µM (inactive)	> 10 µM (inactive)	> 10 µM (inactive)	> 10 µM (inactive)	> 10 µM (inactive)	> 10 µM (inactive)	> 10 µM (inactive)	> 10 µM (inactive)	> 10 µM (inactive)	> 10 µM (inactive)	> 10 µM (inactive)	> 10 µM (inactive)	> 10 µM (inactive)	> 10 µM (inactive)	> 10 µM (inactive)
O=P1(NCCCl)OCCCN1CCCl (stereo not given) [IFOSFAMIDE]	> 428 µM (inactive)	> 479 µM (inactive)	394 µM (inactive)	> 500 µM (inactive)	401 µM (inactive)	341 µM (inactive)	433 µM (inactive)	406 µM (inactive)	361 µM (inactive)	> 500 µM (inactive)	330 µM (inactive)	394 µM (inactive)	300 µM (inactive)	407 µM (inactive)	332 µM (inactive)	382 µM (inactive)	361 µM (inactive)	340 µM (inactive)	345 µM (inactive)	386 µM (inactive)
COc1ccc2nc3ccccc3c(NCCCN(C)CCCl)c2c1	0.104 µM (active)	0.105 µM (active)	0.147 µM (active)	0.333 µM (active)	0.0877 µM (active)	0.959 µM (active)	0.328 µM (active)	0.426 µM (active)	0.213 µM (active)	0.298 µM (active)	0.449 µM (active)	0.0791 µM (active)	0.101 µM (active)	0.497 µM (active)	0.0817 µM (active)	0.557 µM (active)	0.601 µM (active)	0.0497 µM (active)	0.644 µM (active)	0.592 µM (active)
